Assay results as given in publication PMC6421522, “Designing Dual Inhibitors of Anaplastic Lymphoma Kinase (ALK) and Bromodomain-4 (BRD4) by Tuning Kinase Selectivity” (Journal of Medicinal Chemistry, 2019).

Assays:
PLK-1 = target: T1, PLK-1 (Homo sapiens, UniProt P53350); experiment: PLK-1 Z-LYTE activity assay (SelectScreen); format: biochemical; settings: for fold decrease of PLK-1 activity/potency: relative to starting compound BI-2536
T1 construct: purchased Thermo Fisher Scientific (SelectScreen service)
T1 sequence (P53350 whole entry): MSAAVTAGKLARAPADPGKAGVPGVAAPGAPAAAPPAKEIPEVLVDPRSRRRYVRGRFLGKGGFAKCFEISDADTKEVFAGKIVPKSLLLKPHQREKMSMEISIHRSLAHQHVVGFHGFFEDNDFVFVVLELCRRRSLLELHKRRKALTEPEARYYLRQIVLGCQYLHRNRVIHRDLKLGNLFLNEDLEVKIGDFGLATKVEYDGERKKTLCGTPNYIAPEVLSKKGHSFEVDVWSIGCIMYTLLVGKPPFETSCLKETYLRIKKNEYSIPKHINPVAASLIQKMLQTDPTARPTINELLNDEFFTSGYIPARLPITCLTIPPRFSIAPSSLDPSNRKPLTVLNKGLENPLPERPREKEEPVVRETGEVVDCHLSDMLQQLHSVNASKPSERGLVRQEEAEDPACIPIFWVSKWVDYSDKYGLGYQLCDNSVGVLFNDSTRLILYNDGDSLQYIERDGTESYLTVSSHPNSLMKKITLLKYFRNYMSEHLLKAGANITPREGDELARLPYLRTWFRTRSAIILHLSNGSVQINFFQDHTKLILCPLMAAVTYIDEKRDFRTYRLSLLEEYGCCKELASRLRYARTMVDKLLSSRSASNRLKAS

ALK^F1174L = target: T2, ALK^F1174L (Homo sapiens, UniProt Q9UM73, F1174L); experiment: LanthaScreen Eu kinase binding assay
T2 construct: purchased Carna Biosciences
T2 sequence (Q9UM73 19-1620 F1174L): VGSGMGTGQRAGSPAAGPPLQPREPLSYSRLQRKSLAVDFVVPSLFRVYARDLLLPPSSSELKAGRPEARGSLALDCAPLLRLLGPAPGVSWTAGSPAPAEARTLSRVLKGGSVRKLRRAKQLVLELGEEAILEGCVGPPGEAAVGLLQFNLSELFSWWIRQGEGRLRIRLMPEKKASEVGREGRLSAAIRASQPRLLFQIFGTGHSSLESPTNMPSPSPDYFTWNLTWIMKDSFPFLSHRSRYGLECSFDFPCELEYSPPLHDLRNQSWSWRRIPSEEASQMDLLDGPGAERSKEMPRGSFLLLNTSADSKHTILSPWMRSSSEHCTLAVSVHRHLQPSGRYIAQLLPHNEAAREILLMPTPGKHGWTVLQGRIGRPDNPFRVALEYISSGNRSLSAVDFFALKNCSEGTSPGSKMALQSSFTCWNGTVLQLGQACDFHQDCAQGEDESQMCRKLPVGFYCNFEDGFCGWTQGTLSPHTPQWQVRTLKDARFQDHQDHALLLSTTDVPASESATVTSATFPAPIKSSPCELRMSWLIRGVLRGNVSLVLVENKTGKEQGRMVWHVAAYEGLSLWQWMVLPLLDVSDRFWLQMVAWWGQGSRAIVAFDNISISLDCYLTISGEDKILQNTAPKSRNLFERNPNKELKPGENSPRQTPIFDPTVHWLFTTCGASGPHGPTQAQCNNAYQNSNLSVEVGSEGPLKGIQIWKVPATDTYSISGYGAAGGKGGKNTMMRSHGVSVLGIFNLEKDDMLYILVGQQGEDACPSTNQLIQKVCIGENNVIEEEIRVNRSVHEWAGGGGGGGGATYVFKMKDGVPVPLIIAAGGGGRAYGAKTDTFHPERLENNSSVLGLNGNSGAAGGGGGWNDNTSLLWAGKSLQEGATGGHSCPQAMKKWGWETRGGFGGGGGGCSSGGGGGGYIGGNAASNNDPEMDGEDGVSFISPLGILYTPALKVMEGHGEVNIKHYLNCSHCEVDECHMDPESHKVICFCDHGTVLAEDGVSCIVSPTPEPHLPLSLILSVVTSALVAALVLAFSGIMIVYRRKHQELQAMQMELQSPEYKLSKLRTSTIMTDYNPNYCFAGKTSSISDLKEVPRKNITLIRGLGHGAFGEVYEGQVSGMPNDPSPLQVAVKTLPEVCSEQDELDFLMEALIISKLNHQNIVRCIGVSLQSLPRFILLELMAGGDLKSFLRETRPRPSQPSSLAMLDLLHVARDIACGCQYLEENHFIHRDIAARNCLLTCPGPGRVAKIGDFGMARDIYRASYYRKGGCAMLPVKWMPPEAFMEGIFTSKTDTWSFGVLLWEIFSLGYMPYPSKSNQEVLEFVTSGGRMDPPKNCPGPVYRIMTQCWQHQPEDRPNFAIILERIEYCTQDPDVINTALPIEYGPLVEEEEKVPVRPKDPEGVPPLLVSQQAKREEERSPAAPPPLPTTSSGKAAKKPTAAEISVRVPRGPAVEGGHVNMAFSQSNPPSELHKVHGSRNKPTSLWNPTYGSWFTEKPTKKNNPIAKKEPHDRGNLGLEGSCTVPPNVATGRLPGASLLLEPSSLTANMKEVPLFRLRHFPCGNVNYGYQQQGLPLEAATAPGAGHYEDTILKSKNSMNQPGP

ALK WT = ALK WT (Homo sapiens, UniProt Q9UM73); experiment: Biochemical ALK WT IC50; format: binding; settings: geometric mean
Sequence of ALK WT (Q9UM73 19-1620): as the sequence (Q9UM73 19-1620 F1174L) above, with L1156F counted along it

HeLa cells = experiment: Mitotic arrest and mitotic markers in HeLa cells (Western blot); format: cell-based; settings: HeLa cells, Western blot
Experimental: Protein extracts of cells were prepared by lysis in radioimmunoprecipitation assay buffer (Sigma) supplemented with protease inhibitors (complete protease inhibitor cocktail, Roche). Protein extracts (25 μg) were separated by sodium dodecyl sulfate-polyacrylamide gel electrophoresis and transferred onto poly(vinylidene difluoride) membranes using the Trans-Blot Turbo transfer system (BioRad). After blocking with 5% bovine serum albumin in PBS with 0.1% Tween-20 for 30 min, the membrane was incubated with primary antibodies for 1 h at room temperature. Horseradish peroxidase-linked secondary antibodies were incubated 30 min at room temperature followed by enhanced chemiluminescence (ECL) detection (ECL Western blot substrate, Pierce).
Primary antibodies were obtained from the following sources: PLK-1 (05-844) and phosphohistone H3 (Ser10) (05806) from Millipore; pPlk1-T210 (5472) from Cell Signaling; pPlk1-S137 (21738) from Abcam; and cyclin B1 (GNS1) and β-actin (A2228) from Sigma-Aldrich served as loading control.

| fold decrease of PLK-1 activity/potency (PLK-1) | Compound | other results |
| --- | --- | --- |
| 100–200 fold | CCOc1cc(C2CCN(C)CC2)ccc1Nc1ncc2c(n1)N(Cc1cccc(Br)c1)[C@H](CC)C(=O)N2C [16h, (R)-8-(3-Bromobenzyl)-2-((2-ethoxy-4-(1-methylpiperidin-4-yl)phenyl)amino)-7-ethyl-5-methyl-7,8-dihydropteridin-6(5H)-one] | – |
| 100–200 fold | CCOc1cc(C2CCN(C)CC2)ccc1Nc1ncc2c(n1)N(Cc1ccccc1)[C@H](CC)C(=O)N2C [16i, (R)-8-Benzyl-2-((2-ethoxy-4-(1-methylpiperidin-4-yl)phenyl)amino)-7-ethyl-5-methyl-7,8-dihydropteridin-6(5H)-one] | fold increase in ALK^F1174L potency (ALK^F1174L): 2 fold; IC50 (ALK WT): 0.12 ± 0.011 µM |
| > 700 fold | CCOc1cc(C2CCN(C)CC2)ccc1Nc1ncc2c(n1)N(Cc1cccc(C#N)c1)[C@H](CC)C(=O)N2C [23b, (R)-3-((2-((2-Ethoxy-4-(1-methylpiperidin-4-yl)phenyl)amino)-7-ethyl-5-methyl-6-oxo-6,7-dihydropteridin-8(5H)-yl)methyl)benzonitrile] | ALK selectivity over PLK-1 (PLK-1; biochemical IC50s ALK^F1174L vs PLK-1): 5 fold |

Further lines, the compound ahead of its results:

| Compound | fold decrease of PLK-1 activity/potency (PLK-1) | other results |
| --- | --- | --- |
| CC[C@@H]1C(=O)N(C)c2cnc(Nc3ccc(C4CCN(C)CC4)cc3OC)nc2N1C1CCCC1 [16a, (R)-8-Cyclopentyl-7-ethyl-2-((2-methoxy-4-(1-methylpiperidin-4-yl)phenyl)amino)-5-methyl-7,8-dihydropteridin-6(5H)-one] | four-fold | – |
| CCOc1cc(C(=O)NC2CCN(C)CC2)ccc1Nc1ncc2c(n1)N(C1CCCC1)CC(=O)N2C [16e, 4-((8-Cyclopentyl-5-methyl-6-oxo-5,6,7,8-tetrahydropteridin-2-yl)amino)-3-ethoxy-N-(1-methylpiperidin-4-yl)benzamide] | – | fold reduction of ALK^F1174L potency (ALK^F1174L; on removal of the (R)-Et group): 3 fold |
| CCOc1cc(C(=O)NC2CCN(C)CC2)ccc1Nc1ncc2c(n1)N(Cc1cccc(Br)c1)[C@H](CC)C(=O)N2C [16f, (R)-4-((8-(3-Bromobenzyl)-7-ethyl-5-methyl-6-oxo-5,6,7,8-tetrahydropteridin-2-yl)amino)-3-ethoxy-N-(1-methylpiperidin-4-yl)benzamide] | 30–40 fold | – |
| CCOc1cc(C(=O)NC2CCN(C)CC2)ccc1Nc1ncc2c(n1)N(Cc1ccccc1)[C@H](CC)C(=O)N2C [16g, (R)-4-((8-Benzyl-7-ethyl-5-methyl-6-oxo-5,6,7,8-tetrahydropteridin-2-yl)amino)-3-ethoxy-N-(1-methylpiperidin-4-yl)benzamide] | 30–40 fold | – |
| CCOc1cc(C2CCN(C)CC2)ccc1Nc1ncc2c(n1)N(Cc1sccc1C)[C@H](CC)C(=O)N2C [16j, (R)-2-((2-Ethoxy-4-(1-methylpiperidin-4-yl)phenyl)amino)-7-ethyl-5-methyl-8-((3-methylthiophen-2-yl)methyl)-7,8-dihydropteridin-6(5H)-one] | – | IC50 (ALK WT): 0.089 ± 0.004 µM |
| CC[C@@H]1C(=O)N(C)c2cnc(Nc3ccc(C(=O)NC4CCN(C)CC4)cc3OC)nc2N1C1CCCC1 [BI-2536, reference compound] | – | concentration inducing mitotic arrest and increased PLK-1, cyclin B1, phosphohistone H3 (HeLa cells): ≤ 50 nM |
